We go through 25 compounds from patent publication US10287301B2 (Achillion Pharmaceuticals, Inc., priority 2015, dated 2019).

pIC50: −log10 of the molar value.

In one assay the target is Human Factor D (Homo sapiens (Human), UniProt P00746). Put plainly: Human Factor D Assay. It counts as biochemical.
Chain of Human Factor D (P00746 26-253): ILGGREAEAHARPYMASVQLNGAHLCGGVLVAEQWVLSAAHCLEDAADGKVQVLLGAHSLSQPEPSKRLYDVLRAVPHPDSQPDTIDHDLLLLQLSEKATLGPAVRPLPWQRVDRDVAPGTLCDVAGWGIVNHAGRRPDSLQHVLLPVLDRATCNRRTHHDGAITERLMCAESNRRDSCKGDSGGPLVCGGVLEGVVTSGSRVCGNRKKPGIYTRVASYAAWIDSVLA
Conditions: not given
In outline:
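IC50 values derive from nonlinear regression of Factor D reaction rates against compound concentration. The enzyme, purified from human serum, is used at 80 nM final with a 5 min room-temperature compound preincubation in 50 mM Tris, 1M NaCl, pH 7.5, before 100 μM Z-L-Lys-SBzl plus 100 μM DTNB are added.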
For orientation: pIC50 means the IC50 on a negative log10 scale, so that one unit is a factor of ten. The compound `NC(=O)c1nn(CC(=O)N2C[C@H](F)C[C@H]2C(=O)Nc2ncc(Br)cn2)c2ccc(-c3ccnnc3)cc12` [Compound 109, 1-(2-((2S,4R)-2-(5-bromopyrimidin-2-ylcarbamoyl)-4-fluoropyrrolidin-1-yl)-2-oxoethyl)-5-(pyridazin-4-yl)-1H-indazole-3-carboxamide] had a pIC50 of 5.00 to 6.00.
The same measure, in the same setting: the value for `CC(=O)c1cn(CC(=O)N2C[C@H](F)C[C@H]2C(=O)NC2CCCN(c3cc(C)ccc3F)C2=O)c2ccc(-c3ccnnc3)cc12` (stereo partly drawn) [Compound 125, (2S,4R)-1-(2-(3-acetyl-5-(pyridazin-4-yl)-1H-indol-1-yl)acetyl)-4-fluoro-N-(1-(2-fluoro-5-methylphenyl)-2-oxopiperidin-3-yl)pyrrolidine-2-carboxamide] was 5.00 to 6.00.

Staying with this assay, now noted: Human Factor D 80 nM, substrate Z-L-Lys-SBzl; read-out: IC50.
With `NC(=O)c1nn(CC(=O)N2C[C@H](F)C[C@H]2C(=O)NC2CCCc3nc(-c4ccc(F)cc4)sc32)c2ccc(-c3ccnnc3)cc12` (stereo partly drawn) [Compound 107, 1-(2-((2S,4R)-4-fluoro-2-(2-(4-fluorophenyl)-4,5,6,7-tetrahydrobenzo[d]thiazol-7-ylcarbamoyl)pyrrolidin-1-yl)-2-oxoethyl)-5-(pyridazin-4-yl)-1H-indazole-3-carboxamide], the pIC50 is under 5.00.
On the same count and under the same terms, as for `CC(=O)c1cn(CC(=O)N2C[C@H](F)C[C@H]2C(=O)Nc2ccc3ccccc3c2)c2ccc(-c3ccnnc3)cc12` [Compound 110, (2S,4R)-1-(2-(3-acetyl-5-(pyridazin-4-yl)-1H-indol-1-yl)acetyl)-4-fluoro-N-(naphthalen-2-yl)pyrrolidine-2-carboxamide], the figure is under 5.00; as for `NC(=O)c1nn(CC(=O)N2C[C@H](F)C[C@H]2C(=O)Nc2noc3cc(C(F)(F)F)ccc23)c2ccc(-c3ccnnc3)cc12` [Compound 112, 1-(2-((2S,4R)-4-fluoro-2-(6-(trifluoromethyl)benzo[d]isoxazol-3-ylcarbamoyl)pyrrolidin-1-yl)-2-oxoethyl)-5-(pyridazin-4-yl)-1H-indazole-3-carboxamide], under 5.00.
In the case of `Cc1cc(NC(=O)[C@@H]2C[C@@H](F)CN2C(=O)Cn2nc(C(N)=O)c3cc(-c4ccnnc4)ccc32)n2nc(C(F)(F)F)nc2n1` [Compound 113, 1-(2-((2S,4R)-4-fluoro-2-(5-methyl-2-(trifluoromethyl)-[1,2,4]triazolo[1,5-a]pyrimidin-7-ylcarbamoyl)pyrrolidin-1-yl)-2-oxoethyl)-5-(pyridazin-4-yl)-1H-indazole-3-carboxamide], the pIC50 was under 5.00.
The same measure, in the same setting: the value for `NC(=O)c1nn(CC(=O)N2C[C@H](F)C[C@H]2C(=O)Nc2nnc(-c3ccccc3Cl)s2)c2ccc(-c3ccnnc3)cc12` [Compound 115, 1-(2-((2S,4R)-2-(5-(2-chlorophenyl)-1,3,4-thiadiazol-2-ylcarbamoyl)-4-fluoropyrrolidin-1-yl)-2-oxoethyl)-5-(pyridazin-4-yl)-1H-indazole-3-carboxamide] was under 5.00.
The same measure, in the same setting: as for `CC(=O)c1cn(CC(=O)N2C[C@H](F)C[C@H]2C(=O)Nc2nnc(-c3ccc(Cl)c(Cl)c3)s2)c2ccc(-c3ccnnc3)cc12` [Compound 117, (2S,4R)-1-(2-(3-acetyl-5-(pyridazin-4-yl)-1H-indol-1-yl)acetyl)-N-(5-(3,4-dichlorophenyl)-1,3,4-thiadiazol-2-yl)-4-fluoropyrrolidine-2-carboxamide], the figure is under 5.00; as for `CC(=O)Nc1ncc(-c2ccc3c(c2)c(C(C)=O)cn3CC(=O)N2C[C@H](F)C[C@H]2C(=O)Nc2cccc(Br)n2)cn1` [Compound 118, (2S,4R)-1-(2-(5-(2-acetamidopyrimidin-5-yl)-3-acetyl-1H-indol-1-yl)acetyl)-N-(6-bromopyridin-2-yl)-4-fluoropyrrolidine-2-carboxamide], over 6.00.
Still for that read-out and setting: as for `CC(=O)c1cn(CC(=O)N2C[C@H](F)C[C@H]2C(=O)Nc2cccc(Br)n2)c2ccc(-c3cccc(Cl)c3)cc12` [Compound 119, (2S,4R)-1-(2-(3-acetyl-5-(3-chlorophenyl)-1H-indol-1-yl)acetyl)-N-(6-bromopyridin-2-yl)-4-fluoropyrrolidine-2-carboxamide], the figure is over 6.00; as for `CC(=O)c1cn(CC(=O)N2C[C@H](F)C[C@H]2C(=O)Nc2cccc(Br)n2)c2ccc(-c3ccc(C)nc3)cc12` [Compound 120, (2S,4R)-1-(2-(3-acetyl-5-(6-methylpyridin-3-yl)-1H-indol-1-yl)acetyl)-N-(6-bromopyridin-2-yl)-4-fluoropyrrolidine-2-carboxamide], over 6.00.
Take `CC(=O)c1cn(CC(=O)N2C[C@H](F)C[C@H]2C(=O)Nc2cccc(-c3ccccc3Cl)c2F)c2ccc(-c3cnnc(C)c3)cc12` [Compound 121, (2S,4R)-1-(2-(3-acetyl-5-(6-methylpyridazin-4-yl)-1H-indol-1-yl)acetyl)-N-(2′-chloro-2-fluorobiphenyl-3-yl)-4-fluoropyrrolidine-2-carboxamide]: the pIC50 was over 6.00.
As to `COc1cc(C)cc2c1OCCC2NC(=O)[C@@H]1C[C@@H](F)CN1C(=O)Cn1nc(C(N)=O)c2cc(-c3ccnnc3)ccc21` (stereo partly drawn) [Compound 122, 1-(2-((2S,4R)-4-fluoro-2-(8-methoxy-6-methylchroman-4-ylcarbamoyl)pyrrolidin-1-yl)-2-oxoethyl)-5-(pyridazin-4-yl)-1H-indazole-3-carboxamide], the pIC50 is under 5.00.
As to `COc1cc(C)cc2c1OCCC2NC(=O)[C@@H]1C[C@@H](F)CN1C(=O)Cn1cc(C(C)=O)c2cc(-c3ccnnc3)ccc21` (stereo partly drawn) [Compound 123, (2S,4R)-1-(2-(3-acetyl-5-(pyridazin-4-yl)-1H-indol-1-yl)acetyl)-4-fluoro-N-(8-methoxy-6-methylchroman-4-yl)pyrrolidine-2-carboxamide], the pIC50 is under 5.00.
The same measure, in the same setting: as for `CC(=O)c1cn(CC(=O)N2C[C@H](F)C[C@H]2C(=O)Nc2cccc(Cl)c2C(F)(F)F)c2ccc(-c3ccnnc3)cc12` [Compound 126, (2S,4R)-1-(2-(3-acetyl-5-(pyridazin-4-yl)-1H-indol-1-yl)acetyl)-N-(3-chloro-2-(trifluoromethyl)phenyl)-4-fluoropyrrolidine-2-carboxamide], the figure is under 5.00; as for `CC(=O)c1cn(CC(=O)N2C[C@H](F)C[C@H]2C(=O)Nc2cncc(Br)n2)c2ccc(-c3ccnnc3)cc12` [Compound 127, (2S,4R)-1-(2-(3-acetyl-5-(pyridazin-4-yl)-1H-indol-1-yl)acetyl)-N-(6-bromopyrazin-2-yl)-4-fluoropyrrolidine-2-carboxamide], over 6.00; as for `NC(=O)c1nn(CC(=O)N2C[C@H](F)C[C@H]2C(=O)Nc2cncc(Br)n2)c2ccc(-c3ccnnc3)cc12` [Compound 128, 1-(2-((2S,4R)-2-(6-bromopyrazin-2-ylcarbamoyl)-4-fluoropyrrolidin-1-yl)-2-oxoethyl)-5-(pyridazin-4-yl)-1H-indazole-3-carboxamide], over 6.00.
On the same count and under the same terms, the value for `NC(=O)c1nn(CC(=O)N2C[C@H](F)C[C@H]2C(=O)Nc2ccc3ccccc3c2)c2ccc(-c3ccnnc3)cc12` [Compound 131, 1-(2-((2S,4R)-4-fluoro-2-(naphthalen-2-ylcarbamoyl)pyrrolidin-1-yl)-2-oxoethyl)-5-(pyridazin-4-yl)-1H-indazole-3-carboxamide] was under 5.00.
The same measure, in the same setting: as for `CC(=O)c1cn(CC(=O)N2[C@@H]3C[C@@H]3C[C@H]2C(=O)Nc2cccc(Br)n2)c2ccc(-c3cnc(C)nc3)cc12` [Compound 132, (1R,3S,5R)-2-(2-(3-acetyl-5-(2-methylpyrimidin-5-yl)-1H-indol-1-yl)acetyl)-N-(6-bromopyridin-2-yl)-2-azabicyclo[3.1.0] hexane-3-carboxamide], the figure is over 6.00.
On to `CC(=O)c1cn(CC(=O)N2[C@@H]3C[C@@H]3C[C@H]2C(=O)Nc2cccc(-c3ccccc3Cl)c2F)c2ccc(-c3cnc(C)nc3)cc12` [Compound 133, (1R,3S,5R)-2-(2-(3-acetyl-5-(2-methylpyrimidin-5-yl)-1H-indol-1-yl)acetyl)-N-(2′-chloro-2-fluorobiphenyl-3-yl)-2-azabicyclo[3.1.0] hexane-3-carboxamide], for which the pIC50 was over 6.00.
The same measure, in the same setting: as for `CC(=O)c1cn(CC(=O)N2[C@@H]3C[C@@H]3C[C@H]2C(=O)NCc2cccc(Cl)c2F)c2ccc(-c3cnc(C)nc3)cc12` [Compound 134, (1R,3S,5R)-2-(2-(3-acetyl-5-(2-methylpyrimidin-5-yl)-1H-indol-1-yl)acetyl)-N-(3-chloro-2-fluorobenzyl)-2-azabicyclo[3.1.0] hexane-3-carboxamide], the figure is over 6.00.
With `CC(=O)c1cn(CC(=O)N2C[C@H](F)C[C@H]2C(=O)NCc2cccc(Cl)c2F)c2ccc(-c3cnc(C)nc3)cc12` [Compound 135, (2S,4R)-1-(2-(3-acetyl-5-(2-methylpyrimidin-5-yl)-1H-indol-1-yl)acetyl)-N-(3-chloro-2-fluorobenzyl)-4-fluoropyrrolidine-2-carboxamide], the pIC50 is over 6.00.
Still for that read-out and setting: the value for `COc1ncc(-c2ccc3c(c2)c(C(C)=O)cn3CC(=O)N2C[C@H](F)C[C@H]2C(=O)NCc2cccc(Cl)c2F)cn1` [Compound 136, (2S,4R)-1-(2-(3-acetyl-5-(2-methoxypyrimidin-5-yl)-1H-indol-1-yl)acetyl)-N-(3-chloro-2-fluorobenzyl)-4-fluoropyrrolidine-2-carboxamide] was over 6.00; that for `CC(=O)c1cn(CC(=O)N2C[C@H](F)C[C@H]2C(=O)Nc2cccc(Cl)n2)c2ccc(-c3cnc(C)nc3)cc12` [Compound 137, (2S,4R)-1-(2-(3-acetyl-5-(2-methylpyrimidin-5-yl)-1H-indol-1-yl)acetyl)-N-(6-chloropyridin-2-yl)-4-fluoropyrrolidine-2-carboxamide] was over 6.00.
Regarding `CC(=O)Nc1ncc(-c2ccc3c(c2)c(C(C)=O)cn3CC(=O)N2C[C@H](F)C[C@H]2C(=O)Nc2cccc(-c3ccccc3Cl)c2F)cn1` [Compound 138, (2S,4R)-1-(2-(5-(2-acetamidopyrimidin-5-yl)-3-acetyl-1H-indol-1-yl)acetyl)-N-(2′-chloro-2-fluorobiphenyl-3-yl)-4-fluoropyrrolidine-2-carboxamide], the negative-log IC50 (pIC50) is over 6.00.
